Measurements from patent US8354428B2, “Solid state forms of laquinimod and its sodium salt” (Actavis Group PTC EHF, priority 2008, dated 2013).

What was measured:
Assay type in all cases: physicochemical
[1] = Bulk density method of analysis; conditions: about 10 g sample in 25 mL measuring cylinder
Method: (§1) The X-Ray powder diffraction was measured by an X-ray powder diffractometer equipped with a Cu-anode (λ=1.54 Angstrom), X-ray source operated at 40 kV, 40 mA and a Ni filter is used to strip K-beta radiation. Two-theta calibration is performed using an NIST SRM 1976, Corundum standard. The sample was analyzed using the following instrument parameters: measuring range=3-45° 20; step width=0.01579°; and measuring time per step=0.11 second. Infra-Red Spectroscopy (FT-IR): FT-IR spectroscopy was carried out with a Perkin Elmer Spectrum 100 series spectrometer. For the production of the KBr compacts approximately 2 mg of sample was powdered with 200 mg of KBr. The spectra were recorded in transmission mode ranging from 3800 to 450 cm^−1. Differential Scanning Calorimetry (DSC): DSC (Differential Scanning calorimetry) measurements were performed with a Differential Scanning calorimeter (Perkin Elmer diamond DSC) at a scan rate of 10° C. per minute. Bulk Density Method of Analysis About 10 g of sample was placed in a 25 mL measuring cylinder and measured the volume using the following formula: Bulk density=Weight of the sample (g)/Volume of the sample (mL) Tap Density Method of Analysis

[2] = Tap density method of analysis (Sotax tapping instrument, USP II); conditions: about 10 g sample, tapped to constant volume
Method: About 10 g of sample was placed in a 25 mL measuring cylinder and measured the initial volume. The measuring cylinder was kept in a Sotax Tapping instrument (USP II) and measured the volume of the sample every 50 tappings until a constant volume is obtained using the following formula: Tap Density=Weight of the sample (g)/constant Volume of the sample after tapping (mL)

[3] = Particle size distribution by laser diffraction (Malvern Master Sizer 2000); conditions: 90 volume-percent of particles below this diameter
Source text: As used herein, “Particle Size Distribution (P.S.D)” means the cumulative volume size distribution of equivalent spherical diameters as determined by laser diffraction in Malvern Master Sizer 2000 equipment or its equivalent. As used herein, DX means that X percent of the particles have a diameter less than a specified diameter D. Thus, a D90 or d(0.9) of less than 300 microns means that 90 volume-percent of the particles in a composition have a diameter less than 300 microns.

[4] = Polymorphic stability on storage in LDPE bag, checked by P-XRD
Method: as §1
Laquinimod sodium crystalline Form A1 was prepared according to the process exemplified in Example 2 and was packed in a self-sealing low-density polyethylene (LDPE) bag. […]

Bulk density [1]: 0.333 g/mL
Tapped density [2]: 0.476 g/mL
Particle size distribution d(0.9) [3]: 26.3 microns
Polymorphic stability (maintenance of the original P-XRD pattern) ([4]; stored 3 months at about 40±2° C., relative humidity about 75±5%): retain its polymorphic form
Polymorphic stability (maintenance of the original P-XRD pattern) ([4]; stored 6 months at 25±2° C., relative humidity about 60±5%): retain its polymorphic form
Structure (SMILES): CCN(C(=O)c1c(O)c2c(Cl)cccc2n(C)c1=O)c1ccccc1.[Na] [laquinimod sodium crystalline Form A1, N-ethyl-N-phenyl-1,2-dihydro-4-hydroxy-5-chloro-1-methyl-2-oxoquinoline-3-carboxamide sodium]
